Target: T1, FpdA2 (Arthrobacter sp. IF1, UniProt D1MYT1)
T1 construct: co-expressed with flavin reductase FpdB, FpdC and FpdD; not purified
T1 sequence (D1MYT1 1-535): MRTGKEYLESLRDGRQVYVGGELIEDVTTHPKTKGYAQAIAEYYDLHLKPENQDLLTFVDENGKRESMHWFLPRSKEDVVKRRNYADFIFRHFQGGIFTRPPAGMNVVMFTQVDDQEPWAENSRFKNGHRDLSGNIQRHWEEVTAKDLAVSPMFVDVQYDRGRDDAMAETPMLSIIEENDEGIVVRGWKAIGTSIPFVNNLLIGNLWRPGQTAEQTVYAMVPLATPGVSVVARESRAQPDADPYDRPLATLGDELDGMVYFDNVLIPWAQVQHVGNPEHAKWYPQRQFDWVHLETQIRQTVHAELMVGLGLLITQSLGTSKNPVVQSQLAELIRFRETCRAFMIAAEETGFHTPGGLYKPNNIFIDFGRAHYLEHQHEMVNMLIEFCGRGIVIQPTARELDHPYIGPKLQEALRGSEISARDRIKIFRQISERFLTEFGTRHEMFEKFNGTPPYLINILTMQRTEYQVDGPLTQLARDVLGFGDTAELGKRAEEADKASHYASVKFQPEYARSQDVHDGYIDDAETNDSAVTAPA
Test: whole-cell degradation by BL-fpd, HPLC of substrate
Format: cell-based
Settings: 2 mM substrate, 10 uM FAD added, 37 C, 3 h; induced cells co-expressing FpdB, FpdC, FpdD; empty-vector strain BL-control as control

## Oc1ccc(Br)cc1 [4-bromophenol]
  whole-cell degradation by BL-fpd, HPLC of substrate: FpdA2 showed the highest activity towards 4-bromophenol among the substrates tested
